In general, IC50 refers to the concentration at which inhibition is half-maximal. A higher IC50 goes with weaker potency.

Where only a bound is given, the exact number is not on record here.

The values below come from patent US20230340011A1 (Asteroid Therapeutics, priority 2022, published 2023).

One experiment addresses SREBP-2 (Homo sapiens (Human), UniProt Q12772). Description: In vitro assay SREBP-2: PathHunter U2OS SREBP-2 Nuclear Translocation Cell Line, U18666A-stimulated. It counts as cell-based.
Conditions: not given
Consider `CNC(=O)O[C@@H](C)[C@H]1CC[C@H]2[C@@H]3CC=C4C[C@@H](O)CC[C@]4(C)[C@H]3CC[C@]12C` [Example 243, (1S)-1-[(1S,3aS,3bS,7S,9aR,9bS,11aS)-7-hydroxy-9a,11a-dimethyl-1H,2H,3H,3aH,3bH,4H,6H,7H,8H,9H,9aH,9bH,10H,11H,11aH-cyclopenta[a]phenanthren-1-yl]ethyl N-methylcarbamate], for which the half-maximal inhibitory concentration (IC50) is less than 250 nM.

Still in this experiment, the particulars now being: PathHunter U2OS SREBP-2 nuclear translocation cells, U18666A 10 μM, overnight (16 hours).
`CCCC1(O)CCN(C(=O)CC[C@@H](C)[C@H]2CC[C@H]3[C@@H]4CC=C5C[C@@H](O)CC[C@]5(C)[C@H]4CC[C@]23C)CC1` [Example 148, (R)-4-((3S,8S,9S,10R,13R,14S,17R)-3-hydroxy-10,13-dimethyl-2,3,4,7,8,9,10,11,12,13,14,15,16,17-tetradecahydro-1H-cyclopenta[a]phenanthren-17-yl)-1-(4-hydroxy-4-propylpiperidin-1-yl) pentan-1-one] registered an IC50 of less than 250 nM. The same measure, in the same setting: as for `C[C@H](CCC(=O)N1CCCC(c2ccnnc2)C1)[C@H]1CC[C@H]2[C@@H]3CC=C4C[C@@H](O)CC[C@]4(C)[C@H]3CC[C@]12C` (stereo partly drawn) [Example 345, (4R)-4-((3S,8S,9S,10R,13R,14S,17R)-3-hydroxy-10,13-dimethyl-2,3,4,7,8,9,10,11,12,13,14,15,16,17-tetradecahydro-1H-cyclopenta[a]phenanthren-17-yl)-1-(3-(pyridazin-4-yl)piperidin-1-yl)pentan-1-one], the figure is 250 to 1000 nM. `CCC1(O)CCN(C(=O)CC[C@@H](C)[C@H]2CC[C@H]3[C@@H]4CC=C5C[C@@H](O)CC[C@]5(C)[C@H]4CC[C@]23C)CC1` [Example 129, (R)-1-(4-ethyl-4-hydroxypiperidin-1-yl)-4-((3S,8S,9S,10R,13R,14S,17R)-3-hydroxy-10,13-dimethyl-2,3,4,7,8,9,10,11,12,13,14,15,16,17-tetradecahydro-1H-cyclopenta[a]phenanthren-17-yl)pentan-1-one] showed an IC50 of less than 250 nM. Same read-out and setting: as for `Cc1ccc(O[C@@H](C)[C@H]2CC[C@H]3[C@@H]4CC=C5C[C@@H](O)CC[C@]5(C)[C@H]4CC[C@]23C)cn1` [Example 273, (1S,3aS,3bS,7S,9aR,9bS,11aS)-9a,11a-dimethyl-1-[(1S)-1-[(6-methylpyridin-3-yl)oxy]ethyl]-1H,2H,3H,3aH,3bH,4H,6H,7H,8H,9H,9aH,9bH,10H,11H,11aH-cyclopenta[a]phenanthren-7-ol], the figure is less than 250 nM; as for `C[C@H](CCC(=O)NCC(=O)O)[C@H]1CC[C@H]2[C@@H]3CC=C4C[C@@H](O)CC[C@]4(C)[C@H]3CC[C@]12C` [Example 107, ((R)-4-((3S,8S,9S,10R,13R,14S,17R)-3-hydroxy-10,13-dimethyl-2,3,4,7,8,9,10,11,12,13,14,15,16,17-tetradecahydro-1H-cyclopenta[a]phenanthren-17-yl)pentanoyl)glycine], greater than 10000 nM; as for `COC(=O)N1CCN(C(=O)OC[C@@H](C)[C@H]2CC[C@H]3[C@@H]4CC=C5C[C@@H](O)CC[C@]5(C)[C@H]4CC[C@]23C)CC1` [Example 465, 1-(2S)-2-[(1R,3aS,3bS,7S,9aR,9bS,11aS)-7-hydroxy-9a,11a-dimethyl-1H,2H,3H,3aH,3bH,4H,6H,7H,8H,9H,9aH,9bH,10H,11H,11aH-cyclopenta[a]phenanthren-1-yl]propyl 4-methyl piperazine-1,4-dicarboxylate], less than 250 nM. Still for that read-out and setting: as for `C[C@H](CCC(=O)N1OCCC[C@@H]1C)[C@H]1CC[C@H]2[C@@H]3CC=C4C[C@@H](O)CC[C@]4(C)[C@H]3CC[C@]12C` [Example 74, (R)-4-((3S,8S,9S,10R,13R,14S,17R)-3-hydroxy-10,13-dimethyl-2,3,4,7,8,9,10,11,12,13,14,15,16,17-tetradecahydro-1H-cyclopenta[a]phenanthren-17-yl)-1-((S)-3-methyl-1,2-oxazinan-2-yl)pentan-1-one], the figure is less than 250 nM. In turn, `COC(=O)NC[C@@H](C)[C@H]1CC[C@H]2[C@@H]3CC=C4C[C@@H](O)CC[C@]4(C)[C@H]3CC[C@]12C` [Example 240, Methyl ((S)-2-((3S,8S,9S,10R,13S,14S,17R)-3-hydroxy-10,13-dimethyl-2,3,4,7,8,9,10,11,12,13,14,15,16,17-tetradecahydro-1H-cyclopenta[a]phenanthren-17-yl)propyl)carbamate] came in with a 50% inhibitory concentration (IC50) of 250 to 1000 nM. The same measure, in the same setting: the result for “(4R)-4-[(1R,3aS,3bS,7S,9aR,9bS,11aR)-7-hydroxy-9a,11a-dimethyl-1H,2H,3H,3aH,3bH,4H,6H,7H,8H,9H,9aH,9bH,10H,11H,11aH-cyclopenta[a]phenanthren-1-yl]-1-[(3R)-3-(pyrimidin-4-yloxy)piperidin-1-yl]pentan-1-one [Example 462]” reads less than 250 nM; that for `Cc1ccc(OC[C@@H](C)[C@H]2CC[C@H]3[C@@H]4CC=C5C[C@@H](O)CC[C@]5(C)[C@H]4CC[C@]23C)nc1` [Example 441, (3S,8S,9S,10R,13S,14S,17R)-10,13-dimethyl-17-((S)-1-((5-methylpyridin-2-yl)oxy)propan-2-yl)-2,3,4,7,8,9,10,11,12,13,14,15,16,17-tetradecahydro-1H-cyclopenta[a]phenanthren-3-ol], 250 to 1000 nM; that for `C[C@H](Oc1cncc(CO)c1)[C@H]1CC[C@H]2[C@@H]3CC=C4C[C@@H](O)CC[C@]4(C)[C@H]3CC[C@]12C` [Example 269, (3S,8S,9S,10R,13S,14S,17S)-17-((S)-1-((5-(hydroxymethyl)pyridin-3-yl)oxy)ethyl)-10,13-dim ethyl-2,3,4,7,8,9,10,11,12,13,14,15,16,17-tetradecahydro-1H-cyclopenta[a]phenanthren-3-ol], 250 to 1000 nM. Same read-out and setting: the result for `CNC(=O)c1ncccc1O[C@@H](C)[C@H]1CC[C@H]2[C@@H]3CC=C4C[C@@H](O)CC[C@]4(C)[C@H]3CC[C@]12C` [Example 267, 3-((S)-1-((3S,8S,9S,10R,13S,14S,17S)-3-hydroxy-10,13-dimethyl-2,3,4,7,8,9,10,11,12,13,14,15,16,17-tetradecahydro-1H-cyclopenta[a]phenanthren-17-yl)ethoxy)-N-methylpicolinamide] reads 250 to 1000 nM; that for `CNC(=O)c1ccnc(OC[C@@H](C)[C@H]2CC[C@H]3[C@@H]4CC=C5C[C@@H](O)CC[C@]5(C)[C@H]4CC[C@]23C)c1` [Example 450, 2-((S)-2-((3S,8S,9S,10R,13S,14S,17R)-3-hydroxy-10,13-dimethyl-2,3,4,7,8,9,10,11,12,13,14,15,16,17-tetradecahydro-1H-cyclopenta[a]phenanthren-17-yl)propoxy)-N-methylisonicotinamide], less than 250 nM. The same measure, in the same setting: the result for `C[C@H](CCC(=O)N1CC[C@H](Nc2ccncn2)C1)[C@H]1CC[C@H]2[C@@H]3CC=C4C[C@@H](O)CC[C@]4(C)[C@H]3CC[C@]12C` [Example 531, (R)-4-((3S,8S,9S,10R,13R,14S,17R)-3-hydroxy-10,13-dimethyl-2,3,4,7,8,9,10,11,12,13,14,15,16,17-tetradecahydro-1H-cyclopenta[a]phenanthren-17-yl)-1-((S)-3-(pyrimidin-4-ylamino)pyrrolidin-1-yl)pentan-1-one] reads less than 250 nM.
